Measurements from US20220402948A1, “EGFR INHIBITOR, COMPOSITION AND PREPARATION METHOD THEREFOR” (BETTA PHARMACEUTICALS CO., LTD., priority 2019, published 2022).

What was measured:
[1] = test system: A431; experiment: A431 cell proliferation assay (CellTiter Glo, 72 hours); format: cell-based; details: Homo sapiens, A-431, 72 h, cell proliferation, A431, 72 hours, Table 2; read-out: A431 IC50
Procedure, shortened: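 Luminescence (CellTiter-Glo) after 72 h treatment gives viability, fitted by nonlinear regression to yield IC50. Cells seeded at 2000 per well; nine 3-fold concentrations from 1000 nM, DMSO final 0.1% (0.5% for certain compounds).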

[2] = biological target: IGF1R (Homo sapiens, UniProt P08069); experiment: IGF1R kinase test (mobility variation analysis, Caliper EZ Reader); format: biochemical; details: kinase enzymatic activity, Table 1; read-out: EGFR IGF1R IC50
Chain of IGF1R (P08069 31-1367, species assumed): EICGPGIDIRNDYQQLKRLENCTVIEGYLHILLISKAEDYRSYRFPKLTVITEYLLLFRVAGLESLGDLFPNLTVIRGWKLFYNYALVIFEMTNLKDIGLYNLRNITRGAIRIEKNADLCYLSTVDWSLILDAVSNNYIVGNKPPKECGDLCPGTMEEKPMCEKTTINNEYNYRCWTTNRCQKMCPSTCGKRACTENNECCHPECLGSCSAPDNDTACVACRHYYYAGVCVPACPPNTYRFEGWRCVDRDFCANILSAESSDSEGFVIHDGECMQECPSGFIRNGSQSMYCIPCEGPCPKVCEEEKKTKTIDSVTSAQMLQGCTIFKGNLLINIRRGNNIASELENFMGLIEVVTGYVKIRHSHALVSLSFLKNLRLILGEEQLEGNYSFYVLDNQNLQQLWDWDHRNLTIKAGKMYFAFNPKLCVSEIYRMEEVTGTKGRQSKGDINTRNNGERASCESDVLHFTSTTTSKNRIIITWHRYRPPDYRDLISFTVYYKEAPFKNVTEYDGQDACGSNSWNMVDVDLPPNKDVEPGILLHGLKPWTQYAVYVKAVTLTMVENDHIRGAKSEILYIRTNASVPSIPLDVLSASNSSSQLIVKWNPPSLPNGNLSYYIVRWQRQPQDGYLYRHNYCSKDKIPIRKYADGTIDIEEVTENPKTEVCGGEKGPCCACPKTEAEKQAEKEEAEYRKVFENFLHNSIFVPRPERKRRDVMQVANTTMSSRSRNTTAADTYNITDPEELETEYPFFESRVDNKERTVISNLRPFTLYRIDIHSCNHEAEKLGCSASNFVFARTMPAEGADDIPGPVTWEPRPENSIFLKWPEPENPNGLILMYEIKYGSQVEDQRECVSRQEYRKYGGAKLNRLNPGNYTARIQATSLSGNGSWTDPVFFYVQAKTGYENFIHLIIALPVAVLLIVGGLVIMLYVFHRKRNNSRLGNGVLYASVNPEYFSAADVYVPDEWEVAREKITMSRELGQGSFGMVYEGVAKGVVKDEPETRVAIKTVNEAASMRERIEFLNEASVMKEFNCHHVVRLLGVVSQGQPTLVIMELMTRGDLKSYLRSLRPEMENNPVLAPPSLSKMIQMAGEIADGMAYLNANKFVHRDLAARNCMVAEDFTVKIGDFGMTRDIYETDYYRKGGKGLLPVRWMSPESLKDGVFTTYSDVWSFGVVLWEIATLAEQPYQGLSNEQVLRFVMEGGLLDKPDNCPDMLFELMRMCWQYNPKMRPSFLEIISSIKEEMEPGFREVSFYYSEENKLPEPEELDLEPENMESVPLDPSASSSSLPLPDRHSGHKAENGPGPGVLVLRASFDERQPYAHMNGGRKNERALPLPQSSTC
Procedure, shortened: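 Mobility-shift readout of substrate conversion, normalised to positive (no compound) and negative (no kinase) controls, gives % inhibition and IC50 by four-parameter fit. Compounds, 3-fold dilutions over 10 concentrations starting at 3000 nM, preincubated 10 min with kinase before ATP/substrate start; room temperature.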

[3] = biological target: EGFRΔ19del/T790M/C797S (Homo sapiens, UniProt P00533, T790M/C797S, form not given); experiment: EGFR Δ19del/T790M/C797S kinase test (mobility variation analysis, Caliper EZ Reader); format: biochemical; details: kinase enzymatic activity, Table 1
Chain of EGFRΔ19del/T790M/C797S (P00533 with tags, fused parts or gaps DEL746-750/T790M/C797S, form open): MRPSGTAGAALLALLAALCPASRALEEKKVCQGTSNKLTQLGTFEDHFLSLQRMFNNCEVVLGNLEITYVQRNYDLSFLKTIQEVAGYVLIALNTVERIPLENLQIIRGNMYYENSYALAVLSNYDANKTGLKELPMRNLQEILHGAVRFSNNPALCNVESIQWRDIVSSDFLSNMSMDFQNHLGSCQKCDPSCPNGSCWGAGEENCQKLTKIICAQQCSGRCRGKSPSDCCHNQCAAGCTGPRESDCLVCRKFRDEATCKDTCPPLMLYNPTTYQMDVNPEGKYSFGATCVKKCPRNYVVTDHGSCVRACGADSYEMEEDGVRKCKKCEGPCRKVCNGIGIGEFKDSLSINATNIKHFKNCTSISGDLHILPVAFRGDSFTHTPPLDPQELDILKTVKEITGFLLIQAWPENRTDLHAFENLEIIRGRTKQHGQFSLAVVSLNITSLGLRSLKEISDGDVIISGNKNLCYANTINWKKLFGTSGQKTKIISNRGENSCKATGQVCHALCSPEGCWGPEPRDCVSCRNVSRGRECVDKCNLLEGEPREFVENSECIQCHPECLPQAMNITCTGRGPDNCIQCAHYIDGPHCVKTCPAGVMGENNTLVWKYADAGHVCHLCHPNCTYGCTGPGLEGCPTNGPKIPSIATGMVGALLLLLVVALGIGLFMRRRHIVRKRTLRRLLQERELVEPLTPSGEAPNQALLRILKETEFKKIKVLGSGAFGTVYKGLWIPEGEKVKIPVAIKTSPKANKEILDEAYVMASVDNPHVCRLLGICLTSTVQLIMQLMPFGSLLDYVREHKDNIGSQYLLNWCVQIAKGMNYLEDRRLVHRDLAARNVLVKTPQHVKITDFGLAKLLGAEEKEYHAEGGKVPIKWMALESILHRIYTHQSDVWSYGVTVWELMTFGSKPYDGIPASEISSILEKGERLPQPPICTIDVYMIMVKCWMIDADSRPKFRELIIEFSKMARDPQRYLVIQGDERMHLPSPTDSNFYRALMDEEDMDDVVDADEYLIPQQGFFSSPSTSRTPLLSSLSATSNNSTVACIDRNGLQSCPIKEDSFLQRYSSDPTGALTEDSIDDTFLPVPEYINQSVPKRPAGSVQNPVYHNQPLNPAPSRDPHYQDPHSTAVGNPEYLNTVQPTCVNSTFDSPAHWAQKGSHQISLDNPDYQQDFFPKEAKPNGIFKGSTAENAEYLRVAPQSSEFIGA
Procedure, shortened: (§1)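 Read-out is substrate-to-product conversion by mobility shift, stopped after incubation at room temperature with ATP and substrate, following a 10-minute room-temperature compound–enzyme pre-incubation. IC50 obtained by four-parameter variable-slope fitting of inhibition normalized between enzyme-free and uninhibited controls.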

[4] = biological target: EGFR WT (Homo sapiens, UniProt P00533); experiment: EGFR WT kinase test (mobility variation analysis, Caliper EZ Reader); format: biochemical; details: kinase enzymatic activity, Table 1
Procedure, shortened: as §1

[5] = biological target: Ba/F3-EGFR wild-type cell line (Homo sapiens, UniProt P00533); experiment: Ba/F3-EGFR wild-type cell proliferation assay (CellTiter Glo, 72 hours); format: cell-based; details: Table 2, read-out: EGFR WT IC50
Chain of Ba/F3-EGFR wild-type cell line (P00533 whole entry, stated change not applied): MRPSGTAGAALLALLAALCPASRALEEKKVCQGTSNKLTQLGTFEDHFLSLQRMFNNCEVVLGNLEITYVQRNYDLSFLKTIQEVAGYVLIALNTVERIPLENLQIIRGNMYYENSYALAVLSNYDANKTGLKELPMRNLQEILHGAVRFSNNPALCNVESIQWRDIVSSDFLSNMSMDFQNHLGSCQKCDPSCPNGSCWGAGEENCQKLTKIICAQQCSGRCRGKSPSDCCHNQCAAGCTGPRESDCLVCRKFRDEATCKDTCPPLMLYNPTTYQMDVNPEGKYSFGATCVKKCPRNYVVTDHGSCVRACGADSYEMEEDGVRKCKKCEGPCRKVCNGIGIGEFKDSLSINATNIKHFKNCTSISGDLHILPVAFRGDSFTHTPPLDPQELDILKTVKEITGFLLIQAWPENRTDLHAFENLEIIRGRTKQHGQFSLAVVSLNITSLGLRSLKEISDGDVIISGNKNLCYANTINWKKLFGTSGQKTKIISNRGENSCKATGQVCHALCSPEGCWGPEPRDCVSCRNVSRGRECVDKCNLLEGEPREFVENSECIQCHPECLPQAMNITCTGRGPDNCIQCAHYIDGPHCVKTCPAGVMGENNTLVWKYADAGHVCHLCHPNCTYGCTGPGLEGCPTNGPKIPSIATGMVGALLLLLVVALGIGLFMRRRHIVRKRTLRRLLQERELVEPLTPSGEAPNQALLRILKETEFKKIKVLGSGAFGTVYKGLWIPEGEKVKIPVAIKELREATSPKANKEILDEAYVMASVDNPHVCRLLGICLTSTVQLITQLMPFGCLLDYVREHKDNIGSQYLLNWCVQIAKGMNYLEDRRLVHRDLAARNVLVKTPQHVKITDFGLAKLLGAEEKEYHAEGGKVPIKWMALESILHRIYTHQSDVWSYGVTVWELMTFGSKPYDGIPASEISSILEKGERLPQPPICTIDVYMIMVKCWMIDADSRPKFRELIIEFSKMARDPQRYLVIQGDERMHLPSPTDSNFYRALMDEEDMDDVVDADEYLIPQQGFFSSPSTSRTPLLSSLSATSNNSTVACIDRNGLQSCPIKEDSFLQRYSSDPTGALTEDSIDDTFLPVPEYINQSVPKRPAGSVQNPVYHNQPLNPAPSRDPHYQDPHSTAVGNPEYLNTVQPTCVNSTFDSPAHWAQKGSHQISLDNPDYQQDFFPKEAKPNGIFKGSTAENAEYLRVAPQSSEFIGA
Procedure, shortened: (§2)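 Ba/F3 cells stably overexpressing wild-type EGFR or EGFR Δ19del/T790M/C797S were seeded at 2000 cells/well and incubated 72 h with compound. Viability was read by CellTiter-Glo luminescence, and IC50 came from a four-parameter logistic fit of signal against log concentration.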

[6] = biological target: Ba/F3 cells with EGFR Δ19del/T790M/C797S mutation gene stably overexpressed (Homo sapiens, UniProt P00533, T790M/C797S, cells depend on it, form not given); experiment: Ba/F3-Δ19del/T790M/C797S cell proliferation assay (CellTiter Glo, 72 hours); format: cell-based; details: Table 2, read-out: EGFR Δ19del/T790M/C797S IC50
Chain of Ba/F3 cells with EGFR Δ19del/T790M/C797S mutation gene stably overexpressed (P00533 with tags, fused parts or gaps DEL746-750/T790M/C797S, form open): as the sequence (P00533 with tags, fused parts or gaps DEL746-750/T790M/C797S, form open) above
Procedure, shortened: as §2

| SMILES | IC50 [1] | IC50 [2] | IC50 [3] | IC50 [4] | GI50 [5] | GI50 [6] |
| --- | --- | --- | --- | --- | --- | --- |
| CCc1cc(Nc2ncc(Br)c(Nc3ccc(-c4cnccn4)cc3P(C)(C)=O)n2)c(OC)cc1N1CCC(N2CCN(C)CC2)CC1 [Compound 78, (2-((5-Bromo-2-((5-ethyl-2-methoxy-4-(4-(4-methylpiperazin-1-yl)piperidin-1-yl)phenyl)amino)pyrimidin-4-yl)amino)-5-(pyrazin-2-yl)phenyl)dimethylphosphine oxide] | 1090 nM | 94 nM | 0.2 nM | 12.6 nM | 134 nM | 7.2 nM |
| COc1cc(Nc2ncc(Br)c(Nc3ccc(-c4nccs4)cc3P(C)(C)=O)n2)c(C)cc1N1CCOCC1 [Compound K-024, (2-((5-Bromo-2-((5-methoxy-2-methyl-4-morpholinophenyl)amino)pyrimidin-4-yl)amino)-5-(thiazol-2-yl)phenyl)dimethylphosphine oxide] | 601 nM | 71.1 nM | 0.3 nM | 35 nM | 172 nM | 15.6 nM |
| CCc1cc(Nc2ncc(Br)c(Nc3ccc(-c4ccc(C)nn4)cc3P(C)(C)=O)n2)c(OC)cc1N1CCC(N2CCN(C)CC2)CC1 [Compound 33, (2-((5-Bromo-2-((5-ethyl-2-methoxy-4-(4-(4-methylpiperazin-1-yl)piperidin-1-yl)phenyl)amino)pyrimidin-4-yl)amino)-5-(6-methylpyridazin-3-yl)phenyl)dimethylphosphine oxide] | 962 nM | 177 nM | 0.3 nM | 27.3 nM | 437 nM | 13.5 nM |
| CCc1cc(Nc2ncc(Br)c(Nc3ccc(-c4cscn4)cc3P(C)(C)=O)n2)c(OC)cc1N1CCC(N2CCN(C)CC2)CC1 [Compound 28, (2-((5-Bromo-2-((5-ethyl-2-methoxy-4-(4-(4-methylpiperazin-1-yl)piperidin-1-yl)phenyl)amino)pyrimidin-4-yl)amino)-5-(thiazol-4-yl)phenyl)dimethylphosphine oxide] | 778 nM | 61 nM | 0.2 nM | 12 nM | 171 nM | 9.9 nM |
| COc1cnn(-c2ccc(Nc3nc(Nc4cc(OC)c(N5CCC(N6CCN(C)CC6)CC5)cc4C)ncc3Br)c(P(C)(C)=O)c2)c1 [Compound K-018, (2-((5-Bromo-2-((5-methoxy-2-methyl-4-(4-(4-methylpiperazin-1-yl)piperidin-1-yl)phenyl)amino)pyrimidin-4-yl)amino)-5-(4-methoxy-1H-pyrazol-1-yl)phenyl)dimethylphosphine oxide] | 1060 nM | 67.2 nM | 0.2 nM | 17.1 nM | 295 nM | 9.7 nM |
| C#Cc1cnc(-c2ccc(Nc3nc(Nc4cc(CC)c(N5CCC(N6CCN(C)CC6)CC5)cc4OC)ncc3Br)c(P(C)(C)=O)c2)cn1 [Compound K-010, (2-((5-Bromo-2-((5-ethyl-2-methoxy-4-(4-(4-methylpiperazin-1-yl)piperidin-1-yl)phenyl)amino)pyrimidin-4-yl)amino)-5-(5-ethynylpyrazin-2-yl)phenyl)dimethylphosphine oxide] | 693 nM | 46 nM | 0.4 nM | 17 nM | 52.8 nM | 7.2 nM |
| COc1cnn(-c2ccc(Nc3nc(Nc4cc(C)c(N5CCC(N6CCCCC6)CC5)cc4OC)ncc3Br)c(P(C)(C)=O)c2)c1 [Compound K-087] | 4820 nM | 96.1 nM | 0.1 nM | 17.2 nM | 245 nM | 7.4 nM |
| COc1cnn(-c2ccc(Nc3nc(Nc4cc(OC)c(N5CCC(N(C)C)CC5)cc4C)ncc3Br)c(P(C)(C)=O)c2)c1 [Compound K-038, (2-((5-Bromo-2-((4-(4-(dimethylamino)piperidin-1-yl)-5-methoxy-2-methylphenyl)amino)pyrimidine-4-yl)amino)-5-(4-methoxy-1H-pyrazol-1-yl)phenyl)dimethylphosphine oxide] | 1040 nM | 56.1 nM | 0.2 nM | 19.2 nM | 114 nM | 15.4 nM |
| COc1cc(Nc2ncc(Br)c(Nc3ccc(-c4cnn(C)n4)cc3P(C)(C)=O)n2)c(C)cc1N1CCC(N2CCOCC2)CC1 [Compound K-021, (2-((5-Bromo-2-((5-methoxy-2-methyl-4-(4-morpholinopiperidin-1-yl)phenyl)amino)pyrimidin-4-yl)amino)-5-(2-methyl-2H-1,2,3-triazol-4-yl)phenyl)dimethylphosphine oxide] | 3870 nM | 21.6 nM | 0.3 nM | 8.4 nM | 84 nM | 2.3 nM |
| COc1cc(Nc2ncc(Br)c(Nc3ccc(-c4cnccn4)cc3P(C)(C)=O)n2)c(C)cc1N1CCOCC1 [Compound K-022] | 1460 nM | 52.5 nM | 0.2 nM | 31.8 nM | 281 nM | 16.5 nM |
| CCOc1cc(Nc2ncc(Br)c(Nc3ccc(-c4cnn(C)n4)c(F)c3P(C)(C)=O)n2)c(C)cc1N1CCOCC1 [Compound K-034, (6-((5-Bromo-2-((5-ethoxy-2-methyl-4-morpholinophenyl)amino)pyrimidin-4-yl)amino)-2-fluoro-3-(2-methyl-2H-1,2,3-triazol-4-yl)phenyl)dimethylphosphine oxide] | 1230 nM | 37.1 nM | 0.4 nM | 64.4 nM | 219 nM | 20.9 nM |
| CCc1cc(Nc2ncc(Br)c(Nc3ccc(-c4cnc5c(ccn5C)c4)cc3P(C)(C)=O)n2)c(OC)cc1N1CCC(N2CCN(C)CC2)CC1 [Compound 55] | 2960 nM | 497 nM | 1.5 nM | 36.4 nM | 1070 nM | 35 nM |
| C#Cc1ccc(-c2ccc(Nc3nc(Nc4cc(C)c(N5CCC(N6CCN(C)CC6)CC5)cc4OC)ncc3Br)c(P(C)(C)=O)c2)s1 [Compound K-016, (2-((5-Bromo-2-((2-methoxy-5-methyl-4-(4-(4-methylpiperazin-1-yl)piperidin-1-yl)phenyl)amino)pyrimidin-4-yl)amino)-5-(5-ethynylthiophen-2-yl)phenyl)dimethylphosphine oxide] | 497 nM | 94 nM | 0.5 nM | 13.1 nM | 145 nM | 15.3 nM |
| CCc1cc(Nc2ncc(Br)c(Nc3ccc(-n4cc(OC)cn4)cc3P(C)(C)=O)n2)c(OC)cc1N1CCC(N2CCCCC2)CC1 [Compound K-020] | 1130 nM | 126 nM | 0.3 nM | 22 nM | 226 nM | 9.2 nM |
| COc1cnn(-c2ccc(Nc3nc(Nc4cc(OC)c(N5CCOCC5)cc4C)ncc3Br)c(P(C)(C)=O)c2)c1 [Compound K-023, (2-((5-Bromo-2-((5-methoxy-2-methyl-4-morpholinophenyl)amino)pyrimidin-4-yl)amino)-5-(4-methoxy-1H-pyrazol-1-yl)phenyl)dimethylphosphine oxide] | 1280 nM | 136 nM | 0.2 nM | 41.5 nM | 89.5 nM | 5 nM |
| COc1cnn(-c2ccc(Nc3nc(Nc4cc(OC)c(N5CCOCC5)cc4C4CC4)ncc3Br)c(P(C)(C)=O)c2)c1 [Compound K-026, (2-((5-Bromo-2-((2-cyclopropyl-5-methoxy-4-morpholinophenyl)amino)pyrimidin-4-yl)amino)-5-(4-methoxy-1H-pyrazol-1-yl)phenyl)dimethylphosphine oxide] | > 10000 nM | 413 nM | 0.6 nM | 188 nM | 946 nM | 17.3 nM |
| COc1cnn(-c2ccc(Nc3nc(Nc4cc(C)c(N5CCN(C6CCN(C)CC6)CC5)cc4OC)ncc3Br)c(P(C)(C)=O)c2)c1 [Compound K-088] | > 10000 nM | 170 nM | 0.3 nM | 31 nM | 285 nM | 14.6 nM |
| COc1cc(Nc2ncc(Br)c(Nc3ccc(-c4nccs4)cc3P(C)(C)=O)n2)c(C)cc1N1CCC(N2CCN(C)CC2)CC1 [Compound K-019, (2-((5-Bromo-2-((5-methoxy-2-methyl-4-(4-(4-methylpiperazin-1-yl)piperidin-1-yl)phenyl)amino)pyrimidin-4-yl)amino)-5-(thiazol-2-yl)phenyl)dimethylphosphine oxide] | 535 nM | 33.1 nM | 0.2 nM | 14.7 nM | 48.7 nM | 16 nM |
